Laboratory results as given in patent US7112590B2, “Thrombin inhibitors” (LEK Pharmaceuticals d.d., priority 2000, dated 2006).

Target: T1, trypsin (UniProt P00760)
T1 construct: Trypsin (6000 E/mg prot; Sigma): dissolved in distilled water to give a stock solution of 300 E/mL
T1 sequence (P00760 1-246): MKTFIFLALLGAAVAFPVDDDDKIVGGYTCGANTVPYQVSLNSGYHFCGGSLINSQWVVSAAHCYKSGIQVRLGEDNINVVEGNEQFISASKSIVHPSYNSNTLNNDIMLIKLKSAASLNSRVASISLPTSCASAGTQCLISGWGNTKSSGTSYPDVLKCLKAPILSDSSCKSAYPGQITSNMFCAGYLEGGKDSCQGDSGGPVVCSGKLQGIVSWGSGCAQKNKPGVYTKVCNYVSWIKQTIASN
Assay: Determination of trypsin Ki (chromogenic substrate S-2222)
Assay type: biochemical
Settings: substrate S-2222, pH 7.5, 25° C.
Method: The enzyme inhibitory effect of the compounds can be identified by determination of inhibition constant Ki. It denotes the degree of dissociation of the enzyme-inhibitor complex. Low dissociation constant means high potency of inhibitor. Ki can be determined during reaction of the enzyme with a specific chromogenic substrate which under hydrolysis by the enzyme develops color. Reaction in time is recorded by spectrophotometry and Ki is calculated from kinetic parameters (Vmax, Km, reaction rate).
2. Determination of Trypsin Ki
The ability of a compound to act as an inhibitor of trypsin catalytic activity was assessed by determination of Ki.
Buffer: HBSA, pH 7.5 (10 mM Hepes, 150 mM NaCl, 0.1% w/v bovine serum albumin)
Substrate (S-2222: N-benzoyl-Ile-Glu-Gly-Arg-pNA HCl, 25 mg; Chromogenix): dissolved in distilled water to 2 mM concentration. (Km is 21 μM)
Trypsin (6000 E/mg prot.; Sigma): dissolved in distilled water to give a stock solution of 300 E/mL.
Inhibitors: were dissolved in DMSO (10 mM stock solution) and diluted with distilled water to working solution (the highest final concentration of DMSO was 10%).
50 μL of buffer, 50 μL of test compound in water (final concentrations from 50 to 300 μM) and 50 μL of trypsin (3 mE/mL f.c.) were incubated for 15 minutes at room temperature. The reaction was started with 50 μL of S-2222 (50 μM or 100 μM f.c.) and the absorbance of each sample at 405 nm (at 25° C.) was measured in triplicates every 10 seconds for a period of 15 minutes using a microtiter plate reader (Tecan Sunrise).
Trypsin activity was determined from the change in absorbance in the linear part of velocity graph. Ki was calculated according to Cheng and Prussof (Biochem Pharmacol, 1973) where Ki is, IC50/(1+S/Km). The Km for the substrate was determined under test conditions with at least 6 substrate concentrations varying around Km and calculated with the non-linear regression program Curve expert.

Compound `NC(C(=O)N1CCCC1C(=O)NCC1CCc2n[nH]cc2C1)C(c1ccccc1)c1ccccc1` (stereo not shown) has a Ki of 217 µM.

Test system: not given
Assay: not given
Settings: not given

Compared with `CC(C)(C)OC(=O)N[C@@H](C(=O)N1CCC[C@H]1C(=O)NC1CCc2n[nH]cc2C1)C(c1ccccc1)c1ccccc1` (stereo partly drawn) [Example 55, tert-Butyl (1R)-1-benzhydryl-2-oxo-2-{(2S)-2-[(4,5,6,7-tetrahydro-2H-indazol-5-ylamino)carbonyl]pyrrolidinyl}ethylcarbamate], `CC(C)(C)OC(=O)N[C@@H](C(=O)N1CCC[C@H]1C(=O)NCC1CCc2n[nH]cc2C1)C(c1ccccc1)c1ccccc1` (stereo partly drawn) [Example 64, tert-Butyl (1R)-1-benzhydryl-2-oxo-2-((2S)-2-{[(4,5,6,7-tetrahydro-2H-indazol-5-ylmethyl)amino]carbonyl}pyrrolidinyl)ethylcarbamate] is lower in melting point: 119 to 122 °C for the first, 113 to 116 °C for the second.

First: CC(C)(C)OC(=O)CN(C(=O)OC(C)(C)C)[C@H](CC1CCCCC1)C(=O)N1CCC[C@H]1C(=O)NC1CCc2nc(N)sc2C1 (stereo partly drawn) [Example 70, tert-Butyl 2-[[(1R)-2-((2S)-2-{[(2-amino-4,5,6,7-tetrahydro-1,3-benzothiazol-6-yl)amino]carbonyl}pyrrolidinyl)-1-(cyclohexylmethyl)-2-oxoethyl](tert-butoxycarbonyl)amino]acetate]
Second: Nc1ncc2c(n1)CCC(NC(=O)[C@@H]1CCCN1C(=O)[C@@H](CC1CCCCC1)NS(=O)(=O)Cc1ccccc1)C2 (stereo partly drawn) [Example 21, (2S)-N-(2-Amino-5,6,7,8-tetrahydro-6-quinazolinyl)-1-{(2R)-2-[(benzylsulfonyl)amino]-3-cyclohexylpropanoyl}-2-pyrrolidinecarboxamide]
The melting point of the first is lower: 95 to 101 °C for the first, 114 to 117 °C for the second.

Compared with `CC(C)(C)OC(=O)N[C@@H](C(=O)N1CCC[C@H]1C(=O)NC1CCc2nc(N)ncc2C1)C(c1ccccc1)c1ccccc1` (stereo partly drawn) [Example 23, tert-Butyl (1R)-2-((2S)-2-{[(2-amino-5,6,7,8-tetrahydro-6-quinazolinyl)amino]carbonyl}pyrrolidinyl)-1-benzhydryl-2-oxoethylcarbamate], `Cl.Cl.Nc1ncc2c(n1)CCC(CNC(=O)[C@@H]1CCCN1C(=O)[C@H](N)C(c1ccccc1)c1ccccc1)C2` (stereo partly shown) is higher in melting point: 128 to 131 °C for the first, 166 to 168 °C for the second.

`Nc1ncc2c(n1)CCC(NC(=O)[C@@H]1CCCN1C(=O)[C@@H](Cc1ccccc1)NS(=O)(=O)Cc1ccccc1)C2` (stereo partly drawn) [Example 6, (2S)-N-(2-Amino-5,6,7,8-tetrahydro-6-quinazolinyl)-1-{(2R)-2-[(benzylsulfonyl)amino]-3-phenylpropanoyl}-2-pyrrolidinecarboxamide] and `Nc1ncc2c(n1)CCC(CNC(=O)[C@@H]1CCCN1C(=O)[C@@H](Cc1ccccc1)NS(=O)(=O)Cc1ccccc1)C2` (stereo partly drawn) [Example 12, (2S)-N-[(2-Amino-5,6,7,8-tetrahydro-6-quinazolinyl)methyl]-1-{(2R)-2-[(benzylsulfonyl)amino]-3-phenylpropanoyl}-2-pyrrolidinecarboxamide] cannot be ordered by melting point: 117 to 120 °C for the first, 118 to 121 °C for the second.

First: Cl.Cl.Nc1nc2c(s1)CC(NC(=O)[C@@H]1CCCN1C(=O)[C@H](N)Cc1ccc(Cl)c(Cl)c1)CC2 (stereo partly shown)
Second: Cl.N[C@H](Cc1ccc(Cl)c(Cl)c1)C(=O)N1CCC[C@H]1C(=O)NCC1CCc2n[nH]cc2C1 (stereo partly shown)
The melting point of the first is higher: 166 to 169 °C for the first, 145 to 148 °C for the second.

First: Cl.Cl.Nc1nc2c(s1)CC(NC(=O)[C@@H]1CCCN1C(=O)[C@@H](N)C(c1ccccc1)c1ccccc1)CC2 (stereo partly shown)
Second: O=C(NC1CCc2n[nH]cc2C1)[C@@H]1CCCN1C(=O)[C@@H](Cc1ccccc1)NS(=O)(=O)Cc1ccccc1 (stereo partly drawn) [Example 9, (2S)-1-{(2R)-2-[(Benzylsulfonyl)amino]-3-phenylpropanoyl}-N-(4,5,6,7-tetrahydro-2H-indazol-5-yl)-2-pyrrolidinecarboxamide]
The melting point of the first is higher: 155 to 158 °C for the first, 114 to 116 °C for the second.

First: CC(C)(C)OC(=O)N[C@H](Cc1ccccc1)C(=O)N1CCC[C@H]1C(=O)NC1CCc2n[nH]cc2C1 (stereo partly drawn) [Example 10, tert-Butyl (1R)-1-benzyl-2-oxo-2-{(2S)-2-[(4,5,6,7-tetrahydro-2H-indazol-5-ylamino)carbonyl]pyrrolidinyl}ethylcarbamate]
Second: CC(C)(C)OC(=O)N[C@H](Cc1ccc(Cl)c(Cl)c1)C(=O)N1CCC[C@H]1C(=O)NC1CCc2nc(N)ncc2C1 (stereo partly drawn) [Example 14, tert-Butyl (1R)-2-((2S)-2-{[(2-amino-5,6,7,8-tetrahydro-6-quinazolinyl)amino]carbonyl}pyrrolidinyl)-1-(3,4-dichlorobenzyl)-2-oxoethylcarbamate]
The melting point of the first is lower: 108 to 110 °C for the first, 114 to 117 °C for the second.

With `O=C(NC1CCc2n[nH]cc2C1)[C@@H]1CCCN1C(=O)[C@@H](CC1CCCCC1)NS(=O)(=O)Cc1ccccc1` (stereo partly drawn) [Example 22, (2S)-1-{(2R)-2-[(Benzylsulfonyl)amino]-3-cyclohexylpropanoyl}-N-(4,5,6,7-tetrahydro-2H-indazol-5-yl)-2-pyrrolidinecarboxamide] the melting point was 106 to 109 °C.
